US11266655B2, “Methods and compositions for treating urea cycle disorders” (Camp4 Therapeutics Corporation, priority 2019, dated 2022)
Where two headings read alike, the source gives them in different places.

Legend:
NAGS = assay type: cell-based, human; conditions: for Relative NAGS level vs Untreated (±Standard Deviation): triplicate (Table 21, FIG. 13)
ASS1 = assay: RNA-seq of compound-treated primary human hepatocytes, ASS1 expression; assay type: cell-based
SLC25A15 = assay: RNA-seq of compound-treated primary human hepatocytes, SLC25A15 expression; assay type: cell-based; conditions: for Fold change (Log 2) vs untreated, SLC25A15 expression: RNA-seq (Table 8)
ARG1 = assay: RNA-seq of compound-treated primary human hepatocytes, ARG1 expression; assay type: cell-based; conditions: primary human hepatocytes; for Relative ARGI level vs Untreated (±Standard Deviation): 10 μM, triplicate (Table 17, FIG. 9)
urea cycle genes = assay: RNA-seq of primary human hepatocytes, compounds that modulate multiple urea cycle-related genes; assay type: cell-based; conditions: primary human hepatocytes, RNA-seq; for Up-regulated Genes: urea cycle-related genes significantly increased (Table 10)
Experimental: To identify small molecules that modulate urea cycle enzymes, primary human hepatocytes were prepared as a monoculture, and at least one small molecule compound was applied to the cells.
RNA-seq was performed to determine the effects of the compounds on the expression of urea cycle enzymes in hepatocytes. Fold change was calculated by dividing the level of expression in the cell system that had been perturbed by the level of expression in an unperturbed system. Changes in expression having a p-value ≤0.05 were considered significant.
Significance was defined as an FPKM ≥1, a log 2 (fold change) ≥0.5, and a q-value of ≤0.05 for selected gene target.

CPS1 = assay: RNA-seq of compound-treated primary human hepatocytes, CPS1 expression; assay type: cell-based; conditions: primary human hepatocytes, RNA-seq
[1] = primary human hepatocytes, RNA-seq (Table 6)

With O=C(NCCCn1ccnc1)c1cc(-c2ccco2)on1 [SKL2001] the “Fold change (Log 2) vs untreated, NAGS expression” value (NAGS) was 0.95 Log 2.

For CCN(CC)CCNC(=O)c1c(C)[nH]c(/C=C2\C(=O)Nc3ccc(F)cc32)c1C [Sunitinib], the “Relative ASS1 level vs Untreated (±Standard Deviation)” value (ASS1; 3 μM, primary human hepatocytes, triplicate (Table 15, FIG. 7)) was 2.25 ± 0.45, the “Relative ASS1 level vs Untreated (±Standard Deviation)” value (ASS1; 10 μM, primary human hepatocytes, triplicate (Table 15, FIG. 7)) was 2.70 ± 0.37 and the “Relative NAGS level vs Untreated (±Standard Deviation)” value (NAGS; 0.3 μM, primary human hepatocytes) was 1.40 ± 0.03. For the same molecule, the “Relative NAGS level vs Untreated (±Standard Deviation)” value (NAGS; 1 μM, primary human hepatocytes) was 1.63 ± 0.42, the “Relative SLC25A15 level vs Untreated (±Standard Deviation)” value (SLC25A15; 0.3 μM, primary human hepatocytes, triplicate (Table 24, FIG. 16A-B)) was 1.32 ± 0.08 and the “Relative SLC25A15 level vs Untreated (±Standard Deviation)” value (SLC25A15; 3 μM, primary human hepatocytes, triplicate (Table 24, FIG. 16A-B)) was 2.36 ± 0.20. The “Relative SLC25A15 level vs Untreated (±Standard Deviation)” value (SLC25A15; 10 μM, primary human hepatocytes, triplicate (Table 24, FIG. 16A-B)) was 2.43 ± 0.29 and the “Relative ARGI level vs Untreated (±Standard Deviation)” value (ARG1) was 1.36 ± 0.01.

In the case of CCn1c(=O)c(-c2ccc(-c3cncs3)cc2Cl)cc2cnc(Nc3ccc(N4CCN(C)CC4)cc3)nc21 [FRAX597], the “number of urea cycle genes whose expression was significantly up-regulated” value (urea cycle genes) is reported as “five” and the “Up-regulated Genes” value (urea cycle genes) is reported as “CPS1, ASS1, OTC, ARG1, SLC25A15”.

In the case of C=C1/C(=C\C=C2/CCC[C@]3(C)[C@@H]([C@H](C)CCCC(C)(C)O)CC[C@@H]23)C[C@@H](O)C[C@@H]1O [Calcitriol], the “Fold change (Log 2) vs untreated, NAGS expression” value (NAGS; [1]) is reported as 1.2 Log 2.

In the case of CC(=O)CC(c1ccccc1)c1c(O)c2ccccc2oc1=O (stereo not shown) [wafarin], the “Relative ARGI level vs Untreated (±Standard Deviation)” value (ARG1) is reported as 1.33 ± 0.62.

In the case of Cc1cc(C)c(/C=C2\C(=O)Nc3ccccc32)[nH]1 [Semaxanib], the “Fold change (Log 2) vs untreated, NAGS expression” value (NAGS; [1]) is reported as 2 Log 2.

For CN1CCN(CCCN2c3ccccc3Sc3ccc(C(F)(F)F)cc32)CC1 [TFP, Trifluoperazine], the “Fold change (Log 2) vs untreated, NAGS expression” value (NAGS; [1]) was 0.58 Log 2.

COc1nc(N)nc2c1ncn2[C@@H]1O[C@H](COP(=O)(N[C@@H](C)C(=O)OCC(C)(C)C)Oc2cccc3ccccc23)[C@@H](O)[C@@]1(C)O (stereo partly shown) [bms-986094 (inx-189)] was tested, and the “Fold change (Log 2) vs untreated, SLC25A15 expression” value (SLC25A15; primary human hepatocytes) was 1.18 Log 2.

With [H]/N=C(/N)N/C(=N/[H])NCCc1ccccc1 [Phenformin] the “Fold change (Log 2) vs untreated, NAGS expression” value (NAGS) was 1.38 Log 2.

For COc1cc(Nc2ncc(F)c(Nc3ccc4c(n3)N(COP(=O)(O)O)C(=O)C(C)(C)O4)n2)cc(OC)c1OC [R788 (fostamatinib disodium hexahydrate), fostamatinib disodium hexahydrate], the “number of urea cycle genes whose expression was significantly up-regulated” value (urea cycle genes) was “three” and the “Up-regulated Genes” value (urea cycle genes) was “CPS1, ARG1, SLC25A15”.

With CN(C)[C@@H]1C(O)=C(C(N)=O)C(=O)[C@@]2(O)C(O)=C3C(=O)c4c(O)c(NC(=O)CN5CCCC5)cc(F)c4C[C@H]3C[C@@H]12 [TP-434 (Eravacycline), Eravacycline] the “Fold change (Log 2) vs untreated, ASS1 expression” value (ASS1; primary human hepatocytes, RNA-seq (Table 4)) was 0.76 Log 2 and the “Fold change (Log 2) vs untreated, NAGS expression” value (NAGS; [1]) was 1.5 Log 2.

For CCCC(=O)O[C@@H]1[C@@H](C)[C@@]2(O)[C@@H](C=C(CO)C[C@]3(O)C(=O)C(C)=C[C@@H]23)[C@@H]2C(C)(C)[C@]12OC(=O)CCC [Phorbol 12, 13-dibutyrate], the “Fold change (Log 2) vs untreated, NAGS expression” value (NAGS; [1]) was 0.62 Log 2.

In the case of N#CC(c1ccnc(OCc2ccc(CN3CCOCC3)cc2)n1)c1nc2ccccc2s1 (stereo not shown) [AS602801], the “Relative SLC25A15 level vs Untreated (±Standard Deviation)” value (SLC25A15; 10 µM) is reported as 2.22 ± 0.24.

N#CC(c1ccnc(OCc2ccc(CN3CCOCC3)cc2)n1)c1nc2ccccc2s1 (stereo not shown) [Bentamapimod] was tested, and the “Relative ASS1 level vs Untreated (±Standard Deviation)” value (ASS1; 10 µM) was 1.90 ± 0.22.

With C[C@]12C[C@H](O)[C@H]3[C@@H](CCC4=CC(=O)CC[C@@]43C)[C@@H]1CC[C@@H]2C(=O)CO [Corticosterone] the “Fold change (Log 2) vs untreated, SLC25A15 expression” value (SLC25A15; primary human hepatocytes) was 0.96 Log 2.

B1: GDF10 (BMP3b): member of the BMP family and the TGF-B superfamily (protein, UniProt P55107 369-478, looked up)
Growth/differentiation factor …: QWDEPRVCSRRYLKVDFADIGWNEWIISPKSFDAYYCAGACEFPMPKIVRPSNHATIQSIVRAVGIIPGIPEPCCVPDKMNSLGVLFLDENRNVVLKVYPNMSVDTCACR
For B1, the “CPS1 expression, Fold change (Log 2) vs untreated” value (CPS1) was 1.66 Log 2.

B2: GDF 10 (BMP3b) (protein, UniProt P55107 369-478, looked up)
Growth/differentiation factor …: QWDEPRVCSRRYLKVDFADIGWNEWIISPKSFDAYYCAGACEFPMPKIVRPSNHATIQSIVRAVGIIPGIPEPCCVPDKMNSLGVLFLDENRNVVLKVYPNMSVDTCACR
In the case of B2, the “Fold change (Log 2) vs untreated, ARG1 expression” value (ARG1; RNA-seq (Table 7)) is reported as 0.97 Log 2.

B3: Wnt3 a (protein, UniProt P56704 19-352, looked up)
Protein Wnt-3a: SYPIWWSLAVGPQYSSLGSQPILCASIPGLVPKQLRFCRNYVEIMPSVAEGIKIGIQECQHQFRGRRWNCTTVHDSLAIFGPVLDKATRESAFVHAIASAGVAFAVTRSCAEGTAAICGCSSRHQGSPGKGWKWGGCSEDIEFGGMVSREFADARENRPDARSAMNRHNNEAGRQAIASHMHLKCKCHGLSGSCEVKTCWWSQPDFRAIGDFLKDKYDSASEMVVEKHRESRGWVETLRPRYTYFKVPTERDLVYYEASPNFCEPNPETGSFGTRDRTCNVSSHGIDGCDLLCCGRGHNARAERRREKCRCVFHWCCYVSCQECTRVYDVHTCK
For B3, the “Fold change (Log 2) vs untreated, SLC25A15 expression” value (SLC25A15; primary human hepatocytes) was 0.7 Log 2.
